# According to US11535643B2, “Macrolides with modified desosamine sugars and uses thereof” (President and Fellows of Harvard College, priority 2015, dated 2022):
# Like-named read-outs stand apart in the source and are kept apart here.
# Assays:
# Type in all cases: cell-based
# H. influenzae = experiment: Broth dilution MIC determination (CLSI) against H. influenzae strains; conditions: for MIC: Haemophilus influenzae
# Description: Minimum inhibitory concentrations (MICs) for macrolides described herein have been determined for unique strains of S. aureus, S. pneumoniae, S. pyogenes, E. faecalis, E. coli, A. baumannii, K. pneumoniae, P. aeruginosa, and H. influenzae, including several multidrug-resistant strains, with a special focus on macrolide resistant mechanisms. Azithromycin and solithromycin were included as control compounds. CLSI standard procedures for broth dilution MIC determination were used. Data for exemplary compounds described herein is shown in Tables M1-M7 and in Tables N1-N4.
# P. aeruginosa = experiment: Broth dilution MIC determination (CLSI) against P. aeruginosa strains
# Outline: (§1)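 Macrolide MICs come from CLSI-standard broth dilution testing of distinct strains, several multidrug-resistant, selected with attention to macrolide resistance mechanisms; two reference macrolides, azithromycin and solithromycin, were included.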
# K. pneumoniae = experiment: Broth dilution MIC determination (CLSI) against K. pneumoniae strains; conditions: for MIC: Klebsiella pneumoniae
# Outline: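 Azithromycin and solithromycin served as controls; MICs were obtained by standard CLSI broth dilution on a strain panel including multidrug-resistant and macrolide-resistant isolates.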
# E. faecalis = experiment: Broth dilution MIC determination (CLSI) against E. faecalis strains; conditions: for MIC: Enterococcus faecalis
# Outline: as §1
# E. coli = experiment: Broth dilution MIC determination (CLSI) against E. coli strains; conditions: for MIC: Escherichia coli
# Outline: as §1
# S. pyogenes = experiment: Broth dilution MIC determination (CLSI) against S. pyogenes strains; conditions: for MIC: Streptococcus pyogenes
# Outline: as §1
# A. baumannii = experiment: Broth dilution MIC determination (CLSI) against A. baumannii strains; conditions: for MIC: Acinetobacter baumannii
# Outline: as §1
# S. pneumoniae = experiment: Broth dilution MIC determination (CLSI) against S. pneumoniae strains; conditions: for MIC: Streptococcus pneumoniae
# Outline: as §1
# S. aureus = experiment: Broth dilution MIC determination (CLSI) against S. aureus strains; conditions: for MIC: Staphylococcus aureus
# Outline: as §1
smiles,measurement,setting,value
CCC1OC(=O)C(C)C(=O)C(C)C(OC2OC(Cn3cc(-c4cccc(N)n4)nn3)CC(N(C)C)C2O)C(C)(OC)CC(C)CNC(C)C2N(CCCCn3cc(-c4cccc(N)c4)nn3)C(=O)OC12C (stereo not drawn) [FSM-22372],MIC H. influenzae ATCC49247,H. influenzae,16 mg/L
same,"MIC H. influenzae erythro > 4, azithro 1","H. influenzae; erythro > 4, azithro 1",16 mg/L
same,MIC P. aeruginosa ATCC27853,P. aeruginosa; ATCC27853,>32 mg/L
same,MIC P. aeruginosa HPA101-1477,P. aeruginosa; HPA101-1477,>32 mg/L
same,MIC K. pneumoniae ATCC10031,K. pneumoniae,>32 mg/L
same,MIC K. pneumoniae KPC-2,K. pneumoniae; KPC-2,>32 mg/L
same,MIC K. pneumoniae SHV-12,K. pneumoniae; SHV-12,>32 mg/L
same,MIC K. pneumoniae TEM-10,K. pneumoniae; TEM-10,>32 mg/L
same,MIC E. faecalis ATCC29212,E. faecalis,16 mg/L
same,MIC E. faecalis Vancomycin-resistant,E. faecalis; Vancomycin-resistant,>32 mg/L
same,MIC E. coli ATCC25922,E. coli,>32 mg/L
same,MIC E. coli CTX-M-14,E. coli; CTX-M-14,>32 mg/L
same,MIC E. coli NDM-1,E. coli,>32 mg/L
same,MIC E. coli TEM-1,E. coli; TEM-1,>32 mg/L
same,MIC S. pyogenes ATCC19615,S. pyogenes,<0.03125 mg/L
same,MIC S. pyogenes macrolide-resistant,S. pyogenes; macrolide-resistant,8 mg/L
same,MIC A. baumannii ATCC19606,A. baumannii,>32 mg/L
same,MIC A. baumannii IMP-4,A. baumannii; IMP-4,>32 mg/L
same,MIC A. baumannii chromosomal class C,A. baumannii; chromosomal class C,>32 mg/L
same,MIC A. baumannii imipenem-resistant,A. baumannii; imipenem-resistant,>32 mg/L
same,MIC S. pneumoniae ATCC49619,S. pneumoniae,<0.03125 mg/L
same,MIC S. pneumoniae erm B + mef A genotype,S. pneumoniae; erm B + mef A genotype,>32 mg/L
same,"MIC S. pneumoniae erm B + tet(M, O) genotype","S. pneumoniae; erm B + tet(M, O) genotype",<0.03125 mg/L
same,MIC S. aureus ATCC29213,S. aureus,>32 mg/L
same,MIC S. aureus MRSA: USA100,S. aureus,>32 mg/L
same,MIC S. aureus MRSA: USA300,S. aureus,>32 mg/L
same,"MIC S. aureus USA600, GISA",S. aureus,>32 mg/L
same,MIC S. aureus erm A genotype,S. aureus,>32 mg/L
CCC1OC(=O)C(C)C(=O)C(C)C(OC2OC(COC(=O)c3ccccc3)C(O)C(N(C)C)C2O)C(C)(OC)CC(C)CNC(C)C2N(CCCCn3cc(-c4cccc(N)c4)nn3)C(=O)OC12C (stereo not drawn) [FSM-21797],MIC H. influenzae ATCC49247,H. influenzae,>32 mg/L
same,"MIC H. influenzae erythro > 4, azithro 1","H. influenzae; erythro > 4, azithro 1",>32 mg/L
same,MIC P. aeruginosa ATCC27853,P. aeruginosa; ATCC27853,>32 mg/L
same,MIC K. pneumoniae ATCC10031,K. pneumoniae,>32 mg/L
same,MIC K. pneumoniae KPC-2,K. pneumoniae; KPC-2,>32 mg/L
same,MIC E. faecalis ATCC29212,E. faecalis,32 mg/L
same,MIC E. faecalis Vancomycin-resistant,E. faecalis; Vancomycin-resistant,>32 mg/L
same,MIC E. coli ATCC25922,E. coli,>32 mg/L
same,MIC E. coli NDM-1,E. coli,>32 mg/L
same,MIC S. pyogenes ATCC19615,S. pyogenes,8 mg/L
same,MIC S. pyogenes macrolide-resistant,S. pyogenes; macrolide-resistant,32 mg/L
same,MIC A. baumannii ATCC19606,A. baumannii,>32 mg/L
same,MIC A. baumannii imipenem-resistant,A. baumannii; imipenem-resistant,>32 mg/L
same,MIC S. pneumoniae ATCC49619,S. pneumoniae,32 mg/L
same,MIC S. pneumoniae erm B + mef A genotype,S. pneumoniae; erm B + mef A genotype,>32 mg/L
same,"MIC S. pneumoniae erm B + tet(M, O) genotype","S. pneumoniae; erm B + tet(M, O) genotype",16 mg/L
same,MIC S. aureus ATCC29213,S. aureus,>32 mg/L
same,MIC S. aureus MRSA: USA100,S. aureus,>32 mg/L
same,MIC S. aureus MRSA: USA300,S. aureus,>32 mg/L
same,"MIC S. aureus USA600, GISA",S. aureus,>32 mg/L
same,MIC S. aureus erm A genotype,S. aureus,>32 mg/L
CC[C@H]1OC(=O)[C@H](C)C(=O)[C@H](C)[C@@H](O[C@@H]2OC(CNC(=O)c3ccccc3)CC(N(C)C)C2O)[C@](C)(OC)C[C@@H](C)CN[C@H](C)[C@H]2N(CCCCn3cc(-c4cccc(N)c4)nn3)C(=O)O[C@]12C (stereo partly drawn) [FSM-21880],MIC,"H. influenzae; ATCC49247, ATCC49247, read-out: MIC H. influenzae ATCC49247",4 mg/L
same,MIC,"H. influenzae; erythro > 4, azithro 1, read-out: MIC H. influenzae erythro > 4, azithro 1",4 mg/L
same,MIC,"P. aeruginosa; Pseudomonas aeruginosa, ATCC27853, read-out: MIC P. aeruginosa ATCC27853",> 32 mg/L
same,MIC,"K. pneumoniae; ATCC10031, ATCC10031, read-out: MIC K. pneumoniae ATCC10031",8 mg/L
same,MIC,"K. pneumoniae; KPC-2, read-out: MIC K. pneumoniae KPC-2",> 32 mg/L
same,MIC,"E. faecalis; ATCC29212, ATCC29212, read-out: MIC E. faecalis ATCC29212",4 mg/L
same,MIC,"E. faecalis; Vancomycin-resistant, read-out: MIC E. faecalis Vancomycin-resistant",> 32 mg/L
same,MIC,"E. coli; ATCC25922, ATCC25922, read-out: MIC E. coli ATCC25922",16 mg/L
same,MIC,"E. coli; read-out: MIC E. coli NDM-1, NDM-1",32 mg/L
same,MIC,"S. pyogenes; ATCC19615, ATCC19615, read-out: MIC S. pyogenes ATCC19615",< 0.0313 mg/L
same,MIC,"S. pyogenes; macrolide-resistant, read-out: MIC S. pyogenes macrolide-resistant",1 mg/L
same,MIC,"A. baumannii; ATCC19606, ATCC19606, read-out: MIC A. baumannii ATCC19606",> 32 mg/L
same,MIC,"A. baumannii; imipenem-resistant, read-out: MIC A. baumannii imipenem-resistant",32 mg/L
same,MIC,"S. pneumoniae; ATCC49619, ATCC49619, read-out: MIC S. pneumoniae ATCC49619",< 0.0313 mg/L
same,MIC,"S. pneumoniae; erm B + mef A genotype, read-out: MIC S. pneumoniae erm B + mef A genotype",1 mg/L
same,MIC,"S. pneumoniae; erm B + tet(M, O) genotype, read-out: MIC S. pneumoniae erm B + tet(M, O) genotype",< 0.0313 mg/L
same,MIC,"S. pneumoniae; read-out: MIC S. pneumoniae mef A genotype, mef A genotype",2 mg/L
same,MIC,"S. pneumoniae; read-out: MIC S. pneumoniae mef A genotype, mef A genotype, first of two such columns (c3)",0.0625 mg/L
same,MIC,"S. aureus; ATCC29213, ATCC29213, read-out: MIC S. aureus ATCC29213",32 mg/L
same,MIC,"S. aureus; MRSA / USA100, MRSA: USA100, read-out: MIC S. aureus MRSA: USA100",> 32 mg/L
same,MIC,"S. aureus; MRSA / USA300, MRSA: USA300, read-out: MIC S. aureus MRSA: USA300",> 32 mg/L
same,MIC,"S. aureus; USA600, USA600, GISA, read-out: MIC S. aureus USA600, GISA",> 32 mg/L
same,MIC,S. aureus; read-out: MIC S. aureus erm A genotype,> 32 mg/L
